Results: patent US20240209389A1, “PLANT HAVING ENHANCED RESISTANCE AGAINST COLORADO POTATO BEETLE AND METHOD FOR PRODUCING SAME, AND METHOD FOR EVALUATING RESISTANCE AGAINST COLORADO POTATO BEETLE IN PLANT” (KANEKA CORPORATION, priority 2020, published 2024)

Experiments:
S123ACT = experiment: Detection of in vitro enzyme activity of 23ACT (LC-MS of reaction product); assay type: biochemical, S. lycopersicum; details: 50 μM substrate, crude extraction fraction of E. coli expressing S123ACT, 400 μM acetyl CoA, pH 7.2
Experimental: (§1) First, in order to synthesize 23ACT in vitro, the S123ACT gene and the Sc23ACT gene were each linked to a pCold ProS2 (manufactured by Takara Bio Inc.), and were introduced into E. coli BL21 (DE3). The obtained recombinant E. coli was cultured at 37° C. until the OD600 value reached 0.5, was cooled to 15° C., and was left to stand for 30 minutes. IPTG was added thereto so that the final concentration reached 0.1 mM, and the mixture was cultured under shaking at 15° C. for 24 hours, to induce expression of the recombinant protein. Then, the E. coli bodies whose expression was induced were collected, and were suspended in a sonication buffer [50 mM Bis-Tris-HCl (pH 7.0), 150 mM NaCl, 1 mM dithiothreitol, 10% glycerol]. After an ultrasonic crushing machine was used to crush bacterial cells, the mixture was subjected to centrifugal separation, and crude extraction fractions were obtained from the supernatant. A 100 mM Bis-Tris-HCl solution (pH 7.2, containing 400 μM acetyl COA) containing a 50 μM substrate was added to the mixture, and was allowed to react.
(§2) The obtained reaction product was analyzed through LC-MS (manufactured by Waters, product name: UPLC-ESI-MS ACQUITY). As the column, ACQUITY HSS T3 (1.8 μm φ2.1×100 mm) (manufactured by Waters) was used. In LC analysis, gradient elution was performed using a mobile phase (A: 0.1% formic acid water and B: acetonitrile). The gradient elution was performed under the condition: 0 to 30 minutes, 90% A/10% B to 45% A/55% B; 30 to 31 minutes, 45% A/55% B to 100% B; and maintaining for from 31 to 35 minutes, 100% B.

Sc23ACT = experiment: as above; assay type: biochemical, S. chacoense; details: 50 μM substrate, crude extraction fraction of E. coli expressing Sc23ACT, 400 μM acetyl CoA, pH 7.2
Experimental: as §1, §2

St23ACT = experiment: Detection of in vitro enzyme activity of St23ACT (LC-MS of reaction product); assay type: biochemical, S. tuberosum; details: same method as Example 4, crude extraction fraction of E. coli expressing St23ACT
Experimental: as §1
The obtained reaction product was analyzed through LC-MS (manufactured by Waters, product name: UPLC-ESI-MS ACQUITY). As the column, ACQUITY HSS T3 (1.8 μm φ2.1×100 mm) (manufactured by Waters) was used. […]
The St23ACT gene identified in Example 12 was analyzed in the same method described in Example 4. […]

S123DOX = experiment: Detection of in vitro enzyme activity of 23DOX (LC-MS of reaction product); assay type: biochemical, S. lycopersicum; details: 50 μM substrate, crude extraction fraction of E. coli expressing S123DOX, 2-oxoglutaric acid, sodium ascorbate, FeSO4, pH 7.2
Experimental: (§3) First, in order to synthesize 23DOX in E. coli, the S123DOX gene and the Sc23DOX gene were each linked to a pCold ProS2 vector (manufactured by Takara Bio Inc.), and were introduced into E. coli BL21 (DE3). The obtained recombinant E. coli was cultured at 37° C. until the OD600 value reached 0.5, was cooled to 15° C., and was left to stand for 30 minutes. IPTG was added thereto so that the final concentration reached 0.1 mM, and the mixture was cultured under shaking at 15° C. for 24 hours, to induce expression of the recombinant protein.
(§4) Then, the E. coli bodies whose expression was induced were collected, and were suspended in a sonication buffer [50 mM Bis-Tris-HCl (pH 7.0), 150 mM NaCl, 1 mM dithiothreitol, 10% glycerol]. After an ultrasonic crushing machine was used to crush bacterial cells, the mixture was subjected to centrifugal separation, and crude extraction fractions were obtained from the supernatant. A 100 mM Bis-Tris-HCl solution (pH 7.2, containing 5 mM 2-oxoglutaric acid, 10 mM sodium ascorbate, and 200 μM FeSO4) containing a 50 μM substrate was added to the mixture, and was allowed to react.
(§5) The obtained reaction product was analyzed through LC-MS (manufactured by Waters, product name: UPLC-ESI-MS ACQUITY). As the column, ACQUITY HSS T3 1.8 μm φ 2.1×100 mm (manufactured by Waters) was used. […]

Sc23DOX = experiment: as above; assay type: biochemical, S. chacoense; details: 50 μM substrate, crude extraction fraction of E. coli expressing Sc23DOX, 2-oxoglutaric acid, sodium ascorbate, FeSO4, pH 7.2
Experimental: as §3, §4, §5

St23DOX = experiment: Detection of in vitro enzyme activity of St23DOX (LC-MS of reaction product); assay type: biochemical, S. tuberosum; details: same method as Example 3, crude extraction fraction of E. coli expressing St23DOX
Experimental: as §3, §4
The obtained reaction product was analyzed through LC-MS (manufactured by Waters, product name: UPLC-ESI-MS ACQUITY). […]
The St23DOX gene identified in Example 10 was analyzed in the same method described in Example 3. […]

Compound | acetylation of the hydroxy group of position 23 of the substrate (reaction product) (S123ACT) | acetylation of the hydroxy group of position 23 of the substrate (reaction product) (Sc23ACT) | acetylation of the hydroxy group of position 23 of the substrate (reaction product) (St23ACT) | introduction of a hydroxy group to position 23 of the substrate (reaction product) (S123DOX) | introduction of a hydroxy group to position 23 of the substrate (reaction product) (Sc23DOX) | introduction of a hydroxy group to position 23 of the substrate (reaction product) (St23DOX)
23 hydroxy tomatine | a product to which an acetoxy group was introduced at position 23 was obtained | a product to which an acetoxy group was introduced at position 23 was obtained | a product to which an acetoxy group was introduced at position 23 was obtained | – | – | –
CC1CC(O)C2C(C)C3C(CC4C5CC=C6CC(OC7OC(CO)C(OC8OC(C)C(O)C(O)C8O)C(O)C7OC7OC(C)C(O)C(O)C7O)CCC6(C)C5CCC43C)N2C1 [leptinine I, 3β-[2-O,4-O-bis(α-L-rhamnopyranosyl)-β-D-glucopyranosyloxy]solanid-5-en-23β-ol] | a new reaction product was not obtained | a new reaction product was not obtained | – | – | – | –
C[C@H]1C[C@H](O)[C@@H]2[C@@H](C)[C@H]3[C@H](C[C@H]4[C@@H]5CC=C6C[C@@H](O[C@@H]7O[C@H](CO)[C@H](O)[C@H](O[C@@H]8O[C@H](CO)[C@@H](O)[C@H](O)[C@H]8O)[C@H]7O[C@@H]7O[C@@H](C)[C@H](O)[C@@H](O)[C@H]7O)CC[C@]6(C)[C@H]5CC[C@]34C)N2C1 [leptinine II, 3β-[(3-O-β-D-glucopyranosyl-2-O-α-L-rhamnopyranosyl-β-D-galactopyranosyl)oxy]solanid-5-en-23β-ol] | a new reaction product was not obtained | a new reaction product was not obtained | – | – | – | –
C[C@H]1CC[C@@H]2[C@@H](C)[C@H]3[C@H](C[C@H]4[C@@H]5CC=C6C[C@@H](O[C@@H]7O[C@H](CO)[C@H](O)[C@H](O[C@@H]8O[C@H](CO)[C@@H](O)[C@H](O)[C@H]8O)[C@H]7O[C@@H]7O[C@@H](C)[C@H](O)[C@@H](O)[C@H]7O)CC[C@]6(C)[C@H]5CC[C@]34C)N2C1 [α-solanine] | – | – | – | a new reaction product was not obtained | a new reaction product was not obtained | –
C[C@H]1CC[C@]2(NC1)O[C@H]1C[C@H]3[C@@H]4CC[C@H]5C[C@@H](O[C@@H]6O[C@H](CO)[C@H](O[C@@H]7O[C@H](CO)[C@@H](O)[C@H](O[C@@H]8OC[C@@H](O)[C@H](O)[C@H]8O)[C@H]7O[C@@H]7O[C@H](CO)[C@@H](O)[C@H](O)[C@H]7O)[C@H](O)[C@H]6O)CC[C@]5(C)[C@H]4CC[C@]3(C)[C@H]1[C@@H]2C [α-tomatine] | – | – | – | a product to which a hydroxy group was introduced at position 23 was obtained | a product to which a hydroxy group was introduced at position 23 was obtained | a product to which a hydroxy group was introduced at position 23 can be obtained
